Earlier results, collected in US8580300B2, “Pharmaceutical formulation for treating the upper digestive tract” (Dr. Falk Pharma GmbH, priority 2008, dated 2013).

Settings: budesonide resorbed in the stomach/digestive tract

- share of the absorbed budesonide metabolised by the first-pass effect: 90%
SMILES: CCCC1O[C@@H]2C[C@H]3[C@@H]4CCC5=CC(=O)C=C[C@]5(C)[C@H]4[C@@H](O)C[C@]3(C)[C@]2(C(=O)CO)O1 (stereo partly drawn) [budesonide, 16,17-(butylidenebis(oxy))-11,21-dihydroxy-(11-β,16-α)-pregna-1,4-diene-3,20-dione]
